Test [1] addresses T1, PI3Kβ (Homo sapiens, UniProt P42338).
T1 construct: Full length p110 subunits of PI3K α, β and δ, N-terminally labeled with polyHis tag; polyHis (N); made in house; host or cells: Sf9 insect cells (baculovirus)
The test is described as follows: In vitro PI3 kinase enzyme assay (PI3K ATP loss), beta. It counts as biochemical. The following applies: average if run more than once.

Test [2] deals with T2, PI3Kα (Homo sapiens, UniProt P42336).
T2 construct: Full length p110 subunits of PI3K α, β and δ, N-terminally labeled with polyHis tag; polyHis (N); made in house; host or cells: Sf9 insect cells (baculovirus)
T2 sequence (P42336 whole entry): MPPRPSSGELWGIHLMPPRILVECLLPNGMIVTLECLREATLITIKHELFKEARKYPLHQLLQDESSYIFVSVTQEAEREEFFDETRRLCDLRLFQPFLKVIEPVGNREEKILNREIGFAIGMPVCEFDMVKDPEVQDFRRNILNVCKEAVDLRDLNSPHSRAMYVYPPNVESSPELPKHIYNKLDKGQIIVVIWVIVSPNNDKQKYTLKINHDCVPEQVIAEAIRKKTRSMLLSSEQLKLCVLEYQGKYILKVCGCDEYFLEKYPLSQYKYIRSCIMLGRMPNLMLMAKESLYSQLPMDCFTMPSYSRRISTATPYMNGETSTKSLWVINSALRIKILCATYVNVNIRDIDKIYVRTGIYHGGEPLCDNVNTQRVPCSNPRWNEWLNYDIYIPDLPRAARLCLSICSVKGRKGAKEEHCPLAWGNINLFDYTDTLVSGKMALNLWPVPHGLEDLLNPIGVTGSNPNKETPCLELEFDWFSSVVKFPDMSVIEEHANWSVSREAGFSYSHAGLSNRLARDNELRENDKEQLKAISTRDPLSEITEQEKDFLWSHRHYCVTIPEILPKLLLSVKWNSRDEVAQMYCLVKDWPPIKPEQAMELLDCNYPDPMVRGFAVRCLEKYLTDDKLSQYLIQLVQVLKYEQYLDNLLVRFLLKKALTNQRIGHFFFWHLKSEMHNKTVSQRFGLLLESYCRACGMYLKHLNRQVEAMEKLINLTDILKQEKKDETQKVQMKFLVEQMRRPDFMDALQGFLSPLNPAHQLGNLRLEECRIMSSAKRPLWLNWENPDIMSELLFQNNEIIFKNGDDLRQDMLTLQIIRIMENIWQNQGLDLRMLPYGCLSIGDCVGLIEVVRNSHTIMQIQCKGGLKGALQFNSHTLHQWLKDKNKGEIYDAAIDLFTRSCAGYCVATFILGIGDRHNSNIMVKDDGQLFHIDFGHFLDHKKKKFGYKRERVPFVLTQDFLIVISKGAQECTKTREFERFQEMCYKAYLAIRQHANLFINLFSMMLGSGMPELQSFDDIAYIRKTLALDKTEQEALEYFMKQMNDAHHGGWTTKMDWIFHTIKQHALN
T2 sequence (P27986 whole entry partner): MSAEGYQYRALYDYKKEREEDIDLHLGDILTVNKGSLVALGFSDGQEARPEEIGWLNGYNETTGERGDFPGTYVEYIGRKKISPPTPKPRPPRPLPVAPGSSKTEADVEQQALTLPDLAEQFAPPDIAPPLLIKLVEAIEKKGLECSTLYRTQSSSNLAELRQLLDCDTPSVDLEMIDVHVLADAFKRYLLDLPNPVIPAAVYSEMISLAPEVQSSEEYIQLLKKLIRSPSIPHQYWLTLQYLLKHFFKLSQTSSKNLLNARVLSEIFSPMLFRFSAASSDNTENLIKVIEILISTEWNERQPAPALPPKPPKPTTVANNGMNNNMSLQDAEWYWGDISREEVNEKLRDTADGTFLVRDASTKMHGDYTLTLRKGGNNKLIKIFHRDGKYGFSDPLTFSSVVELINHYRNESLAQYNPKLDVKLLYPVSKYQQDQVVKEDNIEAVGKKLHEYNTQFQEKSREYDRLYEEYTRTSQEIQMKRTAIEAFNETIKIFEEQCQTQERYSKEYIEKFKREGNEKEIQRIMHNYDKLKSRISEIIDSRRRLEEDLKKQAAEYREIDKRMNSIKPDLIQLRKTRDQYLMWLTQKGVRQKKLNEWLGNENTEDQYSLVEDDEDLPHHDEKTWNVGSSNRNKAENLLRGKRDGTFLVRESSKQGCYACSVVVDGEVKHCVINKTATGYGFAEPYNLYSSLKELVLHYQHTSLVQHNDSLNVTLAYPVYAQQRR
Kind of test: In vitro PI3 kinase enzyme assay (PI3K ATP loss), alpha. It counts as biochemical. The settings on record: average if run more than once; read-out: ATP Loss (PBKα) IC50 μM (Avg).
Description: Full length p110 subunits of PI3K α, β and δ, N-terminally labeled with polyHis tag, can be co-expressed with p85 with Baculo virus expression vectors in sf9 insect cells. P110/p85 heterodimers can be purified by sequential Ni-NTA, Q-HP, Superdex-100 chromatography. Purified α, β and δ isozymes can be stored at −20° C. in 20 mM Tris, pH 8, 0.2M NaCl, 50% glycerol, 5 mM DTT, 2 mM Na cholate. […] The γ isozyme can be purified by sequential Ni-NTA, Superdex-200, Q-HP chromatography. The γ isozyme can be stored frozen at −80° C. in NaH2PO4, pH 8, 0.2M NaCl, 1% ethylene glycol, 2 mM β-mercaptoethanol.
In Vitro PI3 Kinase Enzyme Assays (PI3K Atploss)
PI3K enzyme assays (alpha, beta, delta and gamma) can be performed in 25 μL with the above final concentrations of components in white polyproplyene plates. Phosphatidyl inositol phosphoacceptor, PtdIns(4,5)P2 (eg. P4508) can be obtained from Echelon Biosciences, Salt Lake City, Utah. […] Test compounds can be dissolved in DMSO and diluted with three-fold serial dilutions. The compound in DMSO (1 μL) may be added per test well, and the inhibition relative to reactions containing no compound, with and without enzyme can be determined After assay incubation at RT, the reaction can be stopped and residual ATP can be determined by addition of an equal volume of a commercial ATP bioluminescence kit (Perkin Elmer EasyLite, Perkin Elmer, Waltham, Mass.) according to the manufacturer's instructions, and detected using an Analyst GT luminometer.

The test system of test [3] is phosphorylation of Akt at Ser473. Kind of test: Cell-based phospho-Akt Ser473 assay (HCT116 cell). The settings on record: HCT 116 human colon carcinoma cells, IGF-1 stimulated; average. In short, it runs like this: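 HCT116 human colon carcinoma cells, 16,000/well, were treated with compounds in a 10-point 3-fold series for 2 h at 37 °C in McCoy's with 0.1% BSA. They were then stimulated with IGF-1 at 100 ng/ml for 15 min. Phospho-Akt Ser473 in lysates was measured by MSD electrochemiluminescent sandwich immunoassay, and IC50 came from dose-response.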

Test [4] has as its target T2, PI3Kα. Kind of test: In vitro PI3K AlphaScreen assay. It counts as biochemical. The following applies: average if run more than once.
Description: In Vitro PI3K Alphascreen® Assay
The PI3K AlphaScreen® assay (PerkinElmer, Waltham, Mass.) measures the activity of a panel of four phosphoinositide 3-kinases: PI3Kα, PI3Kβ, PI3Kγ, and PI3Kδ. Each of these enzymes phosphorylates the 3′-hydroxyl group on phosphatidylinositiol (4,5)-bisphosphate (PIP2) to produce phosphatidylinositol (3,4,5)-trisphosphate (PIP3). This phosphorylation activity is measured using a GST-tagged PIP3 binding protein (Echelon Biosciences, Salt Lake City, Utah), an anti-GST-tagged Acceptor bead, and streptavidin-Donor bead. […] In the absence of this interaction, proximity of the Donor and Acceptor beads is decreased, producing a loss of luminescent signal which is inversely proportional to PI3K activity.
The enzyme reaction buffer is made using sterile water (Baxter, Deerfield, Ill.) and 50 mM Tris HCl pH 7, 14 mM MgCl2, 2 mM sodium cholate, and 100 mM NaCl. 2 mM DTT is added fresh the day of the experiment. The AlphaScreen® reaction buffer is made using sterile water and 10 mM Tris HCl pH 7.5, 150 mM NaCl, 0.10% Tween 20, and 30 mM EDTA. 1 mM DTT is added fresh the day of the experiment.
The source plates for this assay are 384-well Greiner clear polypropylene plates containing test compounds at 5mM and diluted 1:2 over 22 points. […] Source plates are replicated into 384-well Optiplates (PerkinElmer, Waltham, Mass.), 0.5 μL/well, to make assay-ready plates.
The different PI3K isoforms are each diluted in enzyme reaction buffer to 2× working solutions. […] Two different 2× substrate solutions are made in enzyme reaction buffer. In one solution, PI(4,5)P2 (Echelon Biosciences, Salt Lake City, Utah) is diluted to 10 μM and ATP is diluted to 20 μM. This solution is used in the assays testing PI3Kα and PI3Kβ. In a second solution, PI(4,5)P2 is diluted to 10 μM and ATP is diluted to 8 μM. This solution used in the assays testing PI3Kγ and PI3Kδ.
The AlphaScreen® reaction solutions are made using beads from the anti-GST AlphaScreen® kit (PerkinElmer, Waltham, Mass.). Two solutions are made in Alphascreen reaction buffer to 4× working concentrations. In one solution, biotinylated-IP4 (Echelon Biosciences, Salt Lake City, Utah) is diluted to 40 nM and streptavadin-Donor Beads are diluted to 80 μg/mL. In the second solution, PIP3-binding protein (Echelon Biosciences, Salt Lake City, Utah) is diluted to 40 nM and anti-GST-Acceptor Beads are diluted to 80 μg/mL. 10 μL/well of enzyme reaction buffer is added to Column 24 of the assay ready plates in place of enzyme. This is done for plates in the PI3Kα, β, and 67 assays.
Using a 384-well dispensing Multidrop (Titertek, Huntsville, Ala.), 10 μL/well of 2× enzyme (PI3Kα, β, δ) is added to Columns 1-23 of the appropriate assay ready plates (for PI3Kγ 10 μL is added to Columns 1-24). 10 μL/well of the appropriate substrate solution (the solution with 20 μM ATP for PI3Kα and β assays, and the solution with 8 μM ATP for PI3Kγ and δ assays) is then added to Columns 1-24 of the plates. Plates are then incubated at room temperature for 20 minutes.
In the dark, 10 μL/well of the Donor Bead solution is added to Columns 1-24 of the plates to quench the enzyme reaction. The plates are incubated at room temperature for 30 minutes. Still in the dark, 10 μL/well of the Acceptor Bead solution is also added to Columns 1-24 of the plates. The plates are then incubated in the dark for 1.5 hours. The plates are read on an Envision Multilabel Plate Reader (PerkinElmer, Waltham, Mass.) with a 680 nm excitation filter and a 520-620 nm emission filter.
In test [5] the target is T3, mTOR (Homo sapiens, UniProt P42345).
T3 construct: purchased Invitrogen (Carlsbad, Calif.)
T3 sequence (P42345 1360-2549 limits assumed): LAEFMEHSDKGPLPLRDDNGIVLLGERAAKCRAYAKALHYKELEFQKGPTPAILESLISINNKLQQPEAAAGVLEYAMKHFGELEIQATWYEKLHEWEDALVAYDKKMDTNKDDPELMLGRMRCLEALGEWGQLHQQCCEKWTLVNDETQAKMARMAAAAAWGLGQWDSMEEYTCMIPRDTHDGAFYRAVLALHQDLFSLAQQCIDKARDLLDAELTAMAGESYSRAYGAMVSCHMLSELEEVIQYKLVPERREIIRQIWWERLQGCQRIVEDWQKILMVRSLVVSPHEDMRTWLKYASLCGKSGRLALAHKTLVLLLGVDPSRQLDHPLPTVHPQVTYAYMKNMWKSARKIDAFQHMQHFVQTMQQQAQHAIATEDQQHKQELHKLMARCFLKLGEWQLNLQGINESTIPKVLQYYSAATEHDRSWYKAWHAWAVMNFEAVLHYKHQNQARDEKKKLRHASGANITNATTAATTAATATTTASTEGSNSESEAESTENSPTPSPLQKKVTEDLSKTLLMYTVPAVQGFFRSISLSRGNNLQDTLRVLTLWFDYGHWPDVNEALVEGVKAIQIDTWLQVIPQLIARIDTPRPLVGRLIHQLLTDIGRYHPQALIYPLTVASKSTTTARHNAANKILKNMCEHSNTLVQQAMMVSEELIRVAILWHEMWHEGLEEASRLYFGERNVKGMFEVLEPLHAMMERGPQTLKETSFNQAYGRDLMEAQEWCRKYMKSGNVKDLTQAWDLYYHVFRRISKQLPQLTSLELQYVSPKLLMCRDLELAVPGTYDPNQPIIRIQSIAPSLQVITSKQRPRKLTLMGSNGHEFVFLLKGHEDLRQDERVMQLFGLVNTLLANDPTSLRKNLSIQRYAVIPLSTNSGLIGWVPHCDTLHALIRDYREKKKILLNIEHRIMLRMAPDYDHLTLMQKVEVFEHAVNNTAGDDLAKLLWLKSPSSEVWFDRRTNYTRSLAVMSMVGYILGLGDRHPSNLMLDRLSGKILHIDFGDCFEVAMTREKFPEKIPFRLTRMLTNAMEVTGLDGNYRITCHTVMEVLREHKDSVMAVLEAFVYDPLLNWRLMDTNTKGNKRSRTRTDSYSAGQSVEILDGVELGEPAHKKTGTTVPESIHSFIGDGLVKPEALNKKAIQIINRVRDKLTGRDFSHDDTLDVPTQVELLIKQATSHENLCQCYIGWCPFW
The test is described as follows: In vitro mTOR assay (Lanthascreen). The format is biochemical. The following applies: average if run more than once. From the text:
The Invitrogen (Carlsbad, Calif.) mammalian target of rapamycin (mTOR) Lanthascreen assay can be used to quantitate mTOR kinase activity in an in vitro setting. Active mTOR phosphorylates eukaryotic translation initiation factor 4E binding protein 1 (4E-BP1) on residue threonine 46. This phosphorylation event can be detected with a phospho-specific terbium (Tb) labeled Ab, in turn bringing the Tb label in close proximity to the GFP tagged 4E-BP1 and allowing for time-resolved fluorescence resonance energy transfer (TR-FRET), which correlates 4E-BP1 phosphorylation levels with mTOR kinase activity.
Enzyme reaction buffer can be prepared in deionized water containing 50 mM HEPES (pH 7.5), 0.01% Polysorbate 20, 1 mM EGTA, and 10 mM MnCl2.
Dilutions of the compound to be tested can be prepared in 96-well polypropylene plates (Fisher Scientific, Waltham, Mass.). One row represents a 10-point dose of compound diluted 1:3 in enzyme reaction buffer and 20% dimethyl sulfoxide (DMSO). The top concentration for all compounds is 36 μM. Wells 6 and 12 can serve as the no compound (DMSO only) and high compound controls.
An mTOR substrate solution can prepared in enzyme reaction buffer containing 1600 nM green fluorescent protein tagged eukaryotic translation initiation factor 4E binding protein 1 (GFP-4E-BP1) (Invitrogen, Carlsbad, Calif.) and 28 uM adenosine triphosphate (ATP) (Calbiochem, Gibbstown, N.J.).
mTOR enzyme (Invitrogen, Carlsbad, Calif.) can be diluted in enzyme reaction buffer to a working concentration of 100 ng/mL.
The enzyme assay can be run in 384 well low volume assay plates (Corning, Corning, N.Y.). 2.5 uL of substrate solution containing GFP-4E-BP1 and ATP can be added to appropriate wells in the assay plate followed by 2.5 μL of compound dilutions. 5 μL of appropriately diluted mTOR enzyme can be added and the reaction allowed to proceed for 1 hour at room temperature. Final reagent concentrations in the enzyme assay are 50 ng/mL mTOR, 400 nM GFP-4E-BP1, and 7 μM ATP.
The enzyme assay can be terminated upon the addition of 10 μL of 20 mM EDTA and 4 nM Tb-labeled anti-phospho-4E-BP1 [T46] antibody (Invitrogen, Carlsbad, Calif.). The assay plate can then be incubated at room temperature for 1 hour and results read on a Tecan Safire II plate reader (Tecan, Männedorf, Switzerland).

T1 sequence (P42338 whole entry): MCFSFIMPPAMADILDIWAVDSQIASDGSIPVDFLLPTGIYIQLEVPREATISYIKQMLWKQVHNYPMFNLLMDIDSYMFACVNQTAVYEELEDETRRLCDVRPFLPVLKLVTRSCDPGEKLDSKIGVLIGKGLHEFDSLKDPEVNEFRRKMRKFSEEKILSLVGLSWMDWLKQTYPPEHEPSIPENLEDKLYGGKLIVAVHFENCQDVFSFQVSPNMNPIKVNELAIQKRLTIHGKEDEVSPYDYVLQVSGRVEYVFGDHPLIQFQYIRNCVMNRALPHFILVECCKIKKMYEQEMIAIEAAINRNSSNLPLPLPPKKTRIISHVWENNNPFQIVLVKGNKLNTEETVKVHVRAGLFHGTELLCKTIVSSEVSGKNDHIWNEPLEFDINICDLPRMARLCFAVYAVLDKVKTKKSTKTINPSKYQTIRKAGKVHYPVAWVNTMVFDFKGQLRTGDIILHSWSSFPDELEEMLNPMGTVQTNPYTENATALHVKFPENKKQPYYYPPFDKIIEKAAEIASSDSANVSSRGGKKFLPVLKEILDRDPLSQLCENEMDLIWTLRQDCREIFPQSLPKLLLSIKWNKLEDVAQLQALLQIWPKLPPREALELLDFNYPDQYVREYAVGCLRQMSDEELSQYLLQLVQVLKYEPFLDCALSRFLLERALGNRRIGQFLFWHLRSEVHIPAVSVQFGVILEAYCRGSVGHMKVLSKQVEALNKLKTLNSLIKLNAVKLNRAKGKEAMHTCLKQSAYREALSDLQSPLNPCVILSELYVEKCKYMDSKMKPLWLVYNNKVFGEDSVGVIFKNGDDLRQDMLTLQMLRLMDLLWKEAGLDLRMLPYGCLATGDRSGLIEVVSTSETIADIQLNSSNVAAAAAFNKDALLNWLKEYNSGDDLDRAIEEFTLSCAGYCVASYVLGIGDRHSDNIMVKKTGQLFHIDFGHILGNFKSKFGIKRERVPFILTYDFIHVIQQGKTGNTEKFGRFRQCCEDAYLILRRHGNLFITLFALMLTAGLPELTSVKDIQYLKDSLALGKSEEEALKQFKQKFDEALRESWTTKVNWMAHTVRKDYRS
T1 sequence (P27986 whole entry partner): as the sequence (P27986 whole entry partner) above

Turning to `O=S(=O)(Nc1cc(-c2ccc3ncc(N4CCC(F)(F)CC4)nc3c2)cnc1Cl)c1ccc(F)cc1` [Example 58, N-(2-chloro-5-(3-(4,4-difluoro-1-piperidinyl)-6-quinoxalinyl)-3-pyridinyl)-4-fluorobenzenesulfonamide], the figures for the IC50 in test [1], in test [2] and in test [3] were 0.0824 µM, 0.0034 µM and 0.0635 µM, respectively.
With `CC(C)(C)OC(=O)N1CCCC(CNc2cnc3ccc(-c4cnc(Cl)c(NS(=O)(=O)c5ccc(F)cc5)c4)cc3n2)C1` (centres unmarked) [Example 59, tert-butyl 3-(((7-(6-chloro-5-(((4-fluorophenyl)sulfonyl)amino)-3-pyridinyl)-2-quinoxalinyl)amino)methyl)-1-piperidinecarboxylate], the IC50 in test [1] stood at 0.0225 µM; in test [2], 0.0031 µM; in test [3], 0.136 µM.
In the case of `CC(Nc1cnc2ccc(-c3cnc(Cl)c(NS(=O)(=O)c4ccc(F)cc4)c3)cc2n1)c1ccc(F)cc1` (centres unmarked) [Example 60, N-(2-chloro-5-(3-((1-(4-fluorophenyl)ethyl)amino)-6-quinoxalinyl)-3-pyridinyl)-4-fluorobenzenesulfonamide], the IC50 in test [1] is 0.0436 µM; in test [2], 0.0103 µM; in test [3] it was 0.569 µM.
Consider `COc1ccc(CNc2cnc3ccc(-c4cnc(Cl)c(NS(=O)(=O)c5ccc(F)cc5)c4)cc3n2)cc1` [Example 63, N-(2-chloro-5-(3-((4-methoxybenzyl)amino)-6-quinoxalinyl)-3-pyridinyl)-4-fluorobenzenesulfonamide], for which the results for the IC50 in test [1], in test [2] and in test [3] were 0.0502 µM, 0.0056 µM and 0.158 µM, respectively.
On the same counts, the results for `COC1CCCN(c2cnc3ccc(-c4cnc(Cl)c(NS(=O)(=O)c5ccc(F)cc5)c4)cc3n2)C1` (centres unmarked) [Example 66] are 0.03 µM, 0.0027 µM and 0.0405 µM.
On the same counts, the results for `CC1CN(c2cnc3ccc(-c4cnc(Cl)c(NS(=O)(=O)c5ccc(F)cc5)c4)cc3n2)CC(C)O1` (centres unmarked) [Example 67, N-(2-chloro-5-(3-(2,6-dimethyl-4-morpholinyl)-6-quinoxalinyl)-3-pyridinyl)-4-fluorobenzenesulfonamide] are 0.0648 µM, 0.0029 µM and 0.0203 µM.
The corresponding values for `COCC1CCCN1c1cnc2ccc(-c3cnc(Cl)c(NS(=O)(=O)c4ccc(F)cc4)c3)cc2n1` (centres unmarked) [Example 68, N-(2-chloro-5-(3-(2-(methoxymethyl)-1-pyrrolidinyl)-6-quinoxalinyl)-3-pyridinyl)-4-fluorobenzenesulfonamide] are 0.0358 µM, 0.0081 µM and 0.0434 µM.
As to `CN(CC#N)c1cnc2ccc(-c3cnc(Cl)c(NS(=O)(=O)c4ccc(F)cc4)c3)cc2n1` [Example 71, N-(2-chloro-5-(3-((cyanomethyl)(methyl)amino)-6-quinoxalinyl)-3-pyridinyl)-4-fluorobenzenesulfonamide], the figures for the IC50 in test [1], in test [2] and in test [3] were 0.0934 µM, 0.0188 µM and 0.0893 µM, respectively.
Regarding `O=S(=O)(Nc1cc(-c2ccc3ncc(N4CCNCC4)nc3c2)cnc1Cl)c1ccc(F)cc1` [Example 72, N-(2-chloro-5-(3-(1-piperazinyl)-6-quinoxalinyl)-3-pyridinyl)-4-fluorobenzenesulfonamide], the IC50 is 0.01 µM in test [1], 0.0049 µM in test [2] and 0.0168 µM in test [3].
On the same counts, the results for `O=S(=O)(Nc1cc(-c2ccc3ncc(NCC4CCCNC4)nc3c2)cnc1Cl)c1ccc(F)cc1` (centres unmarked) [Example 74, N-(2-chloro-5-(3-((3-piperidinylmethyl)amino)-6-quinoxalinyl)-3-pyridinyl)-4-fluorobenzenesulfonamide] are 0.0463 µM, 0.0192 µM and 2.63 µM.
Turning to `O=S(=O)(Nc1cc(-c2ccc3nccc(N4CCCC(O)CC4)c3c2)cnc1Cl)c1ccc(F)cc1` (centres unmarked) [Example 95, N-(2-chloro-5-(4-(4-hydroxy-1-azepanyl)-6-quinolinyl)-3-pyridinyl)-4-fluorobenzenesulfonamide], the Ki in test [4] is 0.0058 µM. The molecule further came in with an IC50 in test [5] of 0.111 µM.
`COCC(C)Nc1ccnc2ccc(-c3cnc(Cl)c(NS(=O)(=O)c4ccc(F)cc4)c3)cc12` (centres unmarked) [Example 99, N-(2-chloro-5-(4-((2-methoxy-1-methylethyl)amino)-6-quinolinyl)-3-pyridinyl)-4-fluorobenzenesulfonamide]: the Ki in test [4] turned out to be 0.121 µM. The IC50 in test [5] was determined as 2.39 µM.
`O=S(=O)(Nc1cc(-c2ccc3nccc(OCC4CCSCC4)c3c2)cnc1Cl)c1ccc(F)cc1` [Example 100, N-(2-chloro-5-(4-(tetrahydro-2H-thiopyran-4-ylmethoxy)-6-quinolinyl)-3-pyridinyl)-4-fluorobenzenesulfonamide]: the Ki in test [4] was determined as 0.0012 µM. This molecule also returned an IC50 in test [5] of 0.04 µM.
In test [4], `COc1ccc(S(=O)(=O)Nc2cc(-c3ccc4c(c3)OCCO4)cnc2Cl)cc1` [Example 127, N-(2-Chloro-5-(2,3-dihydrobenzo[b][1,4]dioxin-6-yl)pyridin-3-yl)-4-methoxybenzenesulfonamide] registered a Ki of 0.0273 µM. Also, in test [5], it took 0.0651 µM to reach half-maximal inhibition (IC50).
For the molecule `O=C1COc2ccc(-c3cnc(Cl)c(NS(=O)(=O)c4ccc(F)cc4)c3)cc2N1` [Example 129, N-(2-Chloro-5-(3-oxo-3,4-dihydro-2H-benzo[b][1,4]oxazin-6-yl)pyridin-3-yl)-4-fluorobenzenesulfonamide], the Ki in test [4] was determined as 0.0858 µM.
Molecule `O=S(=O)(Nc1cc(N2CCc3ncccc3C2)cnc1Cl)c1ccc(F)cc1` [Example 135, N-(2-Chloro-5-(7,8-dihydro-1,6-naphthyridin-6(5H)-yl)pyridin-3-yl)-4-fluorobenzenesulfonamide] registered a Ki in test [4] of 0.0638 µM. The IC50 in test [5] was found to be 0.218 µM.
